In US20240336566A1, “CRYSTALLINE FORMS OF A COMPOUND FOR THE TARGETED DEGRADATION OF THE ANDROGEN RECEPTOR” (Arvinas Operations, Inc., priority 2023, published 2024):
Read-outs that look alike come from different tables or passages of the source.

Assay: Primary salt screen: XRPD post temperature cycling/evaporation, post drying and post storage at 40° C./75% RH
Type: physicochemical
Protocol: • 30 mg samples of Compound A were weighed out into 2 mL screw cap sample vials for 96 experiments. To these, 200 μL of the appropriate solvent system was added to dissolve the material or form a slurry. See Table 16 for the solvent systems selected for the primary salt screen.
• 1.05 eq. of solid counterions were weighed into six separate vials each and 1 molar stock solutions were prepared for liquid counterions in 5 mL of THF. See Table 17 for selected counterions and mass/volume needed for 1.05 eq. additions. • 100 μL of the appropriate solvent was added to the solid counterions.
The solution/slurry of counterion was added to the solution/slurry of the free base material.
• The samples were placed in an incubator shaker to temperature cycle between ambient and 40° C. over 4 hour cycles. • After ca. 72 hours of temperature cycling, observations were noted, see Table 19.
• Where slurries were obtained, the solids were isolated via centrifugation. Solids and gels were analyzed by XRPD.
Any samples that were clear solutions after temperature cycling were left to evaporate at ambient conditions. See Table 20 for observations made after evaporation. Solids obtained through evaporation were analyzed by XRPD.
• The samples obtained from temperature cycling were dried under vacuum at 40° C. for ca. 20 hours while the samples obtained from evaporation were dried under vacuum at 40° C. for ca. 4 hours. […]

[1] = Compound A + 1.05 eq. counterion (= label), DCM
[2] = Compound A + 1.05 eq. counterion (= label), DCM, dried under vacuum at 40° C.
[3] = Compound A + 1.05 eq. counterion (= label), DCM, stored ca. 20 hours
[4] = Compound A + 1.05 eq. counterion (= label), DMSO:Water (50:50 % v/v)
[5] = Compound A + 1.05 eq. counterion (= label), THF
[6] = Compound A + 1.05 eq. counterion (= label), THF, dried under vacuum at 40° C.
[7] = Compound A + 1.05 eq. counterion (= label), THF, stored ca. 20 hours
[8] = Compound A + 1.05 eq. counterion (= label), 1,4-Dioxane
[9] = Compound A + 1.05 eq. counterion (= label), 1,4-Dioxane, dried under vacuum at 40° C.
[10] = Compound A + 1.05 eq. counterion (= label), 1,4-Dioxane, stored ca. 20 hours
[11] = Compound A + 1.05 eq. counterion (= label), DCM:Methanol (50:50 % v/v)
[12] = Compound A + 1.05 eq. counterion (= label), DCM:Methanol (50:50 % v/v), dried under vacuum at 40° C.
[13] = Compound A + 1.05 eq. counterion (= label), DCM:Methanol (50:50 % v/v), stored ca. 20 hours
[14] = Compound A + 1.05 eq. counterion (= label), DMSO:Water (50:50 % v/v), dried under vacuum at 40° C.
[15] = Compound A + 1.05 eq. counterion (= label), DMSO:Water (50:50 % v/v), stored ca. 20 hours
[16] = Compound A + 1.05 eq. counterion (= label), THF:Water (98:2 % v/v)
[17] = Compound A + 1.05 eq. counterion (= label), THF:Water (98:2 % v/v), dried under vacuum at 40° C.
[18] = Compound A + 1.05 eq. counterion (= label), THF:Water (98:2 % v/v), stored ca. 20 hours

SMILES	XRPD results post temperature cycling and evaporation [1]	XRPD results post drying [2]	XRPD results post 40° C./75% RH [3]	XRPD results post temperature cycling and evaporation [4]	XRPD results post temperature cycling and evaporation [5]	XRPD results post drying [6]	XRPD results post 40° C./75% RH [7]	XRPD results post temperature cycling and evaporation [8]	XRPD results post drying [9]	XRPD results post 40° C./75% RH [10]	XRPD results post temperature cycling and evaporation [11]	XRPD results post drying [12]	XRPD results post 40° C./75% RH [13]	XRPD results post 40° C./75% RH [15]	XRPD results post temperature cycling and evaporation [16]	XRPD results post drying [17]	XRPD results post 40° C./75% RH [18]	other results
O=C(O)c1ccccc1 [Benzoic acid]	A e	A e	A e															
Cc1ccc(S(=O)(=O)O)cc1 [p-Toluenesulfonic acid]	A e	A e	A e	A t	S t			A t	A t	A t	A e	A e	A e	A t	A e	A e	A e	XRPD results post drying [14]: A t
O=S(=O)(O)O [Sulfuric acid]																		XRPD results post 40° C./75% RH: A t and A e; XRPD results post drying: A t and A e; XRPD results post temperature cycling and evaporation: A t and A e
O=P(O)(O)O [Phosphoric acid]	S t *		A t h		S t			A t	A t	A t	S t *				S t			
O=C(O)C(O)C(O)C(=O)O (stereo not drawn) [l-Tartaric acid]	A e	A e	A e	A t	A e	A e	A e	A t	A t	A t	A e	A e	A e		A e	A e	A e	
O=C(O)/C=C\C(=O)O [Maleic acid]	C e	A e d	A e	A t	A e	A e	A e	S t *		A t h	A e	A e	A e	A t	A e	A e	A e	XRPD results post drying [14]: A t
O=C(O)/C=C/C(=O)O [Fumaric acid]	A e	A e	A e		A e	A e	A e	S t *	A t d	A t	A e	A e	A e					
Cl [Hydrochloric acid]	t S										t S							
CS(=O)(=O)O [Methanesulfonic acid]	A e	A e	A e	A t				A t	A t	A t				A t	A e	A e	A e	XRPD results post drying [14]: A t
CC(=O)O [Acetic acid]														A t h				
O=S(=O)(O)c1ccccc1 [Benzenesulfonic acid]	A e	A e	A e	A e	A t	A t	A t	A t	A t	A t				A e h	S e			

Second part, led by results:

XRPD results post temperature cycling and evaporation [1]	XRPD results post drying [2]	XRPD results post 40° C./75% RH [3]	XRPD results post temperature cycling and evaporation [4]	XRPD results post temperature cycling and evaporation [5]	XRPD results post drying [6]	XRPD results post 40° C./75% RH [7]	XRPD results post temperature cycling and evaporation [8]	XRPD results post drying [9]	XRPD results post 40° C./75% RH [10]	XRPD results post temperature cycling and evaporation [11]	XRPD results post drying [12]	XRPD results post 40° C./75% RH [13]	XRPD results post 40° C./75% RH [15]	XRPD results post temperature cycling and evaporation [16]	XRPD results post drying [17]	XRPD results post 40° C./75% RH [18]	SMILES	other results
A e	A e	A e	A t	A e	A e	A e											O=C(O)C[C@H](O)C(=O)O [l-Malic acid]	
A e	A e	A e	A t	A e	A e	A e	A t	A t	A t	A e	A e	A e	A t	A e	A e	A e	O=C(O)CC(O)(CC(=O)O)C(=O)O [Citric acid]	XRPD results post drying [14]: A t
C e	C e	C e	A t														N[C@@H](CCC(=O)O)C(=O)O [l-Glutamic]	
C e	A e d	C e h	A t														O=C(O)CCC(=O)O [Succinic acid]	
A e	A e	A e	A t	A e	A e	A e				A e	A e	A e		A e	A e	A e	O=C(O)CC(=O)O [Malonic acid]	
